Source: patent US6410598B1, “Compositions and methods for advanced glycosylation endproduct-mediated modulation of amyloidosis” (priority 1994, dated 2002)

What was measured:
soluble βAP = molecular target: T1, soluble βAP (Homo sapiens, UniProt P05067); assay: Thioflavin-T fluorescence assay of βAP aggregation and seeding; format: biochemical; details: 400 μM βAP 1-28, 0.1 M sodium acetate pH 7.0; 100 mM glucose, 0.05 M aminoguanidine; FIG. 4
T1 construct: Soluble βAP (400 μM βAP 1-28), 0.1 M sodium acetate in 0.1 M phosphate buffer; purchased Bachem (Torrance, Calif.); host or cells: chemical synthesis
T1 sequence (P05067 672-699): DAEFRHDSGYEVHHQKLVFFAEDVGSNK
Procedure: Aggregation of soluble βAP 1-28 or 3AP 1-40 at different concentrations was initiated by addition of 0.1 M sodium acetate (NaOAc) at the indicated pH (between 4.7 and 7.5) and continued for the indicated times. Quantitative aggregate formation with sub-millimolar βAP concentrations was detected using the procedure of LeVine (1992, Protein Science 2:404-410). Briefly, fluorescence of aggregates added to 10 μM Thioflavin-T (Aldrich)/50 mM potassium phosphate buffer, pH 6.0, was measured upon excitation at 450±5 nm and detection of emission at 482±10 nm on a Perkin Elmer LS-50B spectrofluorimeter. Where indicated, small amounts of pre-formed aggregates or “nucleation seeds” were added to the soluble βAP and aggregation initiated with 0.1 M sodium acetate.
After incubation, protein concentrations of seed preparations were measured and adjusted with buffer to 150 μM final concentration.

[1] = molecular target: fibrillar β-amyloid peptide (Homo sapiens, UniProt P05067); assay: Co-precipitation with aggregated β-amyloid peptide (supernatant absorbance spectrum after centrifugation); format: binding
Chain of fibrillar β-amyloid peptide (P05067 672-713 limits assumed): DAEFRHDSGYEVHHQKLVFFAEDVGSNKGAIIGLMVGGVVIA
Procedure: A preparation of Compound 8, supra, was employed in this assay. Soluble β-amyloid peptide was allowed to aggregate in the presence of phosphate buffer, Compound 8 or dithionitrobenzene and various compounds as described in Example 1, supra. The samples containing dithionitrobenzene are controls for non-specific association of a chromophoric small molecule with precipitated β-amyloid peptide. An additional control sample was prepared containing phosphate buffer and the various compounds, but lacking β-amyloid peptide. After overnight incubation, the tubes were centrifuged at 15,000×g for 30 minutes, half of the supernatant removed and added to a cuvette, and the absorbance spectrum of the supernatant from 200 to 600 nm obtained. In the absence of an association between compound 8 and aggregated sedimentable B-amyloid components of the aggregated assay incubation, compound 8, which has an absorbance maximum at about 350 nm, will remain in the supernatant and its presence and concentration can be readily determined. Alternatively, association of Compound 8 with the precipitated β-amyloid peptide would result in decreased absorbance at 350 nm. […] In the control tubes, no decrease in the absorbance is expected, since the compound should remain soluble.

Row | SMILES | effect on fluorescent aggregate formation of soluble βAP (soluble βAP) | absorbance of the supernatant after pelleting of fibrillar β-amyloid peptide versus before pelleting ([1]; 350 nm for Compound 8, overnight incubation, 15,000×g for 30 minutes, FIG. 7) | association with insoluble aggregated β-amyloid peptide ([1]; co-sedimentation in vitro)
1 | N=C(N)NN [aminoguanidine] | can inhibit the AGE-enhanced aggregation |  | 
2 | Cc1ccc2nc(-c3ccc(NCCCC[N+](C)(C)C[C@@]4(O)OC[C@@H](O)[C@@H](O)[C@@H]4O)cc3)sc2c1 [Compound 8, (4-[N-(4-[N-(1-deoxy-β-D-fructopyranos-1-yl)-N,N-dimethylammonio]butyl)amino]phenyl)-6-methylbenzothiazole chloride] |  | reduced | specifically associates with insoluble, aggregated β-amyloid peptide deposits
